Data reported in patent US7312237B2, “Combination of epothilone analogs and chemotherapeutic agents for the treatment of prolilferative diseases” (Bristol-Myers Squibb Co., priority 2001, dated 2007).

Experiments:
HCT116/VM46 = assay: In vitro cytotoxicity (MTS assay), HCT116/VM46; type: cell-based, human
in vivo = details: nude, mouse, in vivo, iv, Compound 1 IV
Excerpt: (§1) The following human tumors were used: A2780 ovarian, A2780Tax ovarian (established from cells obtained from Dr. Antonio Fojo, Medicine Branch, NCI, Bethesda, Md.), HCT116/VM46 colon, Pat-7 ovarian (established from a tumor biopsy provided by Dr. Thomas Hamilton, Fox Chase Cancer Center, Philadelphia, Pa.) from a patient who had developed resistance to TAXOL®). The murine fibrosarcoma M5076 was also employed.
(§2) The following tumors were passaged in the indicated host strain of mouse: murine M5076 fibrosarcoma (M5076) in C57Bl/6 mice; human A2780 and Pat-7 ovarian carcinomas, HCT116, HCT116/VM46 and LS174T colon carcinoma, Pat-21 breast carcinoma in nude mice. Tumor passage occurred biweekly for murine tumors and approximately every two to eight weeks for the various human tumor lines. With regard to efficacy testing, M5076 tumors were implanted in (C57Bl/6×DBA/2)F1 hybrid mice, and human tumors were implanted in nude mice. All tumor implants for efficacy testing were subcutaneous (sc).
(§3) The required number of animals needed to detect a meaningful response were pooled at the start of the experiment and each was given a subcutaneous implant of a tumor fragment (·50 mg) with a 13-gauge trocar. For treatment of early-stage tumors, the animals were again pooled before distribution to the various treatment and control groups. For treatment of animals with advanced-stage disease, tumors were allowed to grow to the predetermined size window (tumors outside the range were excluded) and animals were evenly distributed to various treatment and control groups. Treatment of each animal was based on individual body weight. Treated animals were checked daily for treatment related toxicity/mortality. Each group of animals was weighed before the initiation of treatment (Wt1) and then again following the last treatment dose (Wt2). The difference in body weight (Wt2−Wt1) provides a measure of treatment-related toxicity.
(§4) Tumor weights (mg) were estimated from the formula: Tumor weight=(length×width^2)÷2
(§5) Antitumor activity was evaluated at the maximum tolerated dose (MTD) which is defined as the dose level immediately […] which excessive toxicity (i.e. more than one death) occurred. […] When death occurs, the day of death was recorded.
(§6) Tumor response end-point was expressed in terms of tumor growth delay (T-C value), defined as the difference in time (days) required for the treated tumors (T) to reach a predetermined target size compared to those of the control group (C).
(§7) To estimate tumor cell kill, the tumor volume doubling time was first calculated with the formula:
(§8) TVDT=Median time (days) for control tumors to reach target size−Median time (days) for control tumors to reach half the target size
(§9) HCT116/VM46 is an MDR-resistant colon carcinoma developed from the sensitive HCT116 parent line.

[1] = test system: HCT116/VM46 human colon carcinoma; assay: in vivo
Excerpt: as §1, §2, §3, §4, §5, §6, §7, §8, §9

[2] = In vivo antitumor testing, LS174T xenograft; set-up: species or system nude mice; details: nude, mouse, in vivo, iv; read-out: OD (optimal dose or MTD)
Description: (§10) All tumor implants for efficacy testing were subcutaneous (sc).
(§11) The MTD was frequently equivalent to OD. When death occurs, the day of death was recorded.
(§12) And, Log cell kill=T−C÷(3.32×TVDT)

[3] = test system: LS174T human colon carcinoma; assay: In vivo antitumor testing, LS174T xenograft; set-up: species or system nude mice; details: Expt. R578, IV q4dx3, OD 16 mg/kg
Description: as §10, §11, §12

[4] = test system: A2780 human ovarian carcinoma; assay: In vivo antitumor testing, A2780 in nude mice
Description: as §10, §11, §12

[5] = In vivo antitumor testing, A2780 in nude mice; details: nude, mouse, in vivo, iv, Compound 1 IV, read-out: OD (optimal dose or MTD)
Description: as §10, §11, §12

[6] = test system: HCT116 human colon carcinoma cell line; assay: Clonogenic cell colony-formation assay (single agent and combination, isobologram); type: cell-based; details: concentration killing clonogenic HCT-116 cells by 90%
Excerpt: Analysis of the effects of combination treatment in vitro was by the isobologram and multiplicity methods described by Stephens and Steel
The success of an anticancer agent is dependent not only on its antitumor activity as a single agent but also on its ability to combine successfully with other antineoplastic drugs.

MIP = assay: In vitro cytotoxicity (MTS assay), MIP; type: cell-based; details: 72 h
Description: (§13) The in vitro cytotoxicity was assessed in tumor cells by a tetrazolium-based colorimetric assay which takes advantage of the metabolic conversion of MTS (3-(4,5-dimethylthiazol-2-yl)-5-(3-carboxymethoxyphenyl)-2-(4-sulphenyl)-2H-tetrazolium, inner salt) to a reduced form that absorbs light at 492 nm. Cells were seeded 24 hr prior to drug addition. Following a 72 hour incubation at 37° C. with serially diluted compound, MTS, in combination with the electron coupling agent phenazine methosulfate, was added to the cells. The incubation was continued for 3 hours, then the absorbancy of the medium at 492 nm was measured with a spectrophotometer to obtain the number of surviving cells relative to control populations. The results are expressed as median cytotoxic concentrations (IC50 values).

[7] = test system: tubulin isolated from calf brain; assay: Tubulin polymerization assay; type: biochemical
[8] = test system: normal mouse lung fibroblast cell line MLF; assay: In vitro cytotoxicity (MTS assay), MLF; type: cell-based
Description: as §13

[9] = test system: A2780 human ovarian carcinoma; assay: In vivo antitumor testing, A2780 in nude rats
Description: as §11, §12
A2780 grown in nude rats was also utilized.

[10] = In vivo antitumor testing, Pat-7 in nude rats; details: nude, rat, in vivo, iv; read-out: OD (optimal dose or MTD)
Description: as §11, §12

[11] = test system: Pat-7 human ovarian carcinoma; assay: In vivo antitumor testing, Pat-7 in nude rats; details: Expt. 15, nude rats, IV q8dx2, OD 3 mg/kg
Description: as §11, §12

[12] = Expt. 89, IV q2dx5, OD 6.3 mg/kg
[13] = Expt. 115, IV q2dx5, OD 6.3 mg/kg
[14] = Expt. 115, IV q4dx3, OD 16 mg/kg

In the case of `C/C(=C\c1csc(C)n1)[C@@H]1C[C@@H]2O[C@]2(C)CCC[C@H](C)[C@H](O)[C@@H](C)C(=O)C(C)(C)[C@@H](O)CC(=O)N1` (relative stereo) [Compound 1, [1S-[1R*,3R*(E),7R*,10S*,11R*,12R*,16S*]]-7,11-dihydroxy-8,8,10,12,16-pentamethyl-3-[1-methyl-2-(2-methyl-4-thiazolyl)ethenyl]-4-aza-17-oxabicyclo[14.1.0] heptadecane-5,9-dione], the IC50 (HCT116/VM46; Homo sapiens, HCT-116/VM46, HCT116/VM46 (MDR), 72 hour incubation) is reported as 24.5 nM, the “resistance ratio (R/S)” value (HCT116/VM46; IC50 HCT116/VM46 versus sensitive HCT116) is reported as 9.4 and the MTD (in vivo; OD (optimal dose or MTD), q2dx5) is reported as 4.8 mg/kg. The MTD (in vivo; OD (optimal dose or MTD; maximum tolerated regimen), q4dx3) was 15 mg/kg, the “OD (optimal dose or MTD)” value ([1]; Compound 1 IV, q2dx5) was 6.3 mg/kg and the “OD (optimal dose or MTD; maximum tolerated regimen)” value ([1]; Compound 1 IV, q4dx3) was 16 mg/kg. The “LCK (gross log cell kill)” value ([1]; Expt. 32, IV q2dx5, OD 4.8 mg/kg) was 3.1, the “LCK (gross log cell kill)” value ([1]; Expt. 33, IV q2dx5, OD 4.8 mg/kg) was 1.3 and the “LCK (gross log cell kill)” value ([1]; Expt. 35, IV q2dx5, OD 6.3 mg/kg) was 1.8. The “LCK (gross log cell kill)” value ([1]; Expt. 35, IV q4dx3, OD 16 mg/kg) was 2.0, the “LCK of tumor response” value ([1]; FIG. 7, Compound 1 alone, 15 mg/kg iv, q4dx3) was 1.6 LCK and the tumor cure ([1]; FIG. 7, single agent treatment at maximum tolerated regimen) was “did not induce tumor cure”. For the same molecule, the MTD [2] was 16 mg/kg, the “LCK (gross log cell kill)” value [3] was 2.3 and the “OD (optimal dose or MTD)” value ([4]; Compound 1 IV, q2dx5) was 4.8 mg/kg. The “LCK (gross log cell kill)” value [4, 12] was over 4.8, the cures/total [4, 12] was 3/7 and the “LCK (gross log cell kill)” value ([4]; Expt. 92, IV q2dx5, OD 6.3 mg/kg) was 2. For the same molecule, the “LCK (gross log cell kill)” value ([4]; Expt. 111, IV q2dx5, OD 4.8 mg/kg) was 3.1, the “LCK (gross log cell kill)” value [4, 13] was 2.4 and the cures/total [4, 13] was 0/8. The “LCK (gross log cell kill)” value [4, 14] was over 5.3, the cures/total [4, 14] was 3/7 and the MTD ([5]; q2dx5) was 6.3 mg/kg. The MTD ([5]; q4dx3) was 16 mg/kg, the IC90 [6] was about 7.5 nM and the IC50 (MIP) was 24.8 nM. For the same molecule, the “Ratio of Polymerization Potency of Analog/Paclitaxel” value [7] was 0.4, the IC50 [8] was 34.5 nM and the MTD ([9]; Compound 1, every 2 days x5, nude rats) was 1.2 mg/kg/inj. The LCK ([9]; nude rats, every 2 days x5, MTD 1.2 mg/kg/inj) was 0.3, the MTD [10] was 3 mg/kg and the “LCK (gross log cell kill)” value [11] was over 5. The cures/total [11] was 4 of 6 and (4/6).
